According to patent US11149009B2, “Fused piperidinyl bicyclic and related compounds as modulators of C5A receptor” (InflaRx GmbH, priority 2019, dated 2021):
pIC50: −log10 of the molar value.

The molecules below were run against C5a receptor (Homo sapiens (Human), UniProt P21730) (assay: Calcium mobilization assay (C5a-induced, U937 cells)). Conditions: inhibition of C5a-induced calcium mobilization.
Type: cell-based
Protocol: U937 cells (ATCC® CRL-1593.2) were cultivated in RPMI1640 medium supplemented with 10% fetal bovine serum in a standard cell culture incubator. The day before conducting the assay, Dibutyryl-cAMP (0.5 mM working concentration) was added to cell cultures. Next day, cells were spun and resuspended in RPMI 1640 to a concentration of 40,000 cells per 50 μl. 40,000 cells were plated in one well in a 96 well poly-D-lysine coated plate for two hours to allow cells to adhere. After cell adherence, cytoplasmic calcium^++ indicator (FLIPR Calcium 6 Assay Kit, Molecular Devices) was added to each well and incubated for 75 minutes at 37° C. Test compounds were diluted using a robotic liquid handler. The tips of the robotic liquid handler were changed after each mixing step. Test compounds were added into cell cultures at various concentrations (0.01 nM to 100 μM) for 15 minutes at 37° C. The cell culture plates were then incubated at room temperature for 30 minutes before being placed into Flexstation-3 plate reader (Molecular Devices). The Flexstation-3 was programmed to add recombinant C5a protein at various concentrations (1 nM to 10 nM) to cell culture plates and to monitor the change of fluorescence intensity, which correlates with cytoplasmic calcium concentration. The assay was also performed with the presence of human or animal blood components, such as human or bovine plasma or serum.
The half maximal inhibitory concentrations, i.e. IC50, were determined in biological assays, such as calcium mobilization assay. Using the calcium mobilization assay the following IC50 values were determined by the best dose-response curve fitting method. The curves were plotted using percentage inhibition of C5a-induced calcium mobilization versus various concentrations of compounds.

Chain of C5a receptor (P21730 whole entry): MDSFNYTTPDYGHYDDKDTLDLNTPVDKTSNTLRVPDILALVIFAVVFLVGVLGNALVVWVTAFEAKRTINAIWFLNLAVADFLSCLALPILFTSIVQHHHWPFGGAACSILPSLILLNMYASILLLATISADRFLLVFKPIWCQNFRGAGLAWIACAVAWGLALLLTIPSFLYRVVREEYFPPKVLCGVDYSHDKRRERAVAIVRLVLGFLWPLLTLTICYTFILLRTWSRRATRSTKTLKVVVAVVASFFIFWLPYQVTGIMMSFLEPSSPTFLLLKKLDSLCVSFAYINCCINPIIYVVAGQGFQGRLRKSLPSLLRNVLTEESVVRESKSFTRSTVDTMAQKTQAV

pIC50, > 8.00:
[2H]C1(Nc2ccc([C@H]3[C@@H](C(=O)Nc4ccc(C)c(C(F)(F)F)c4)C[C@@H](C(F)(F)F)CN3C(=O)c3c(F)cccc3F)cc2)CCCC1 [INF067, (2R,3S,5R)-2-(4-((cyclopentyl-1-d)amino)phenyl)-1-(2,6-difluorobenzoyl)-N-(4-methyl-3-(trifluoromethyl)phenyl)-5-(trifluoromethyl)piperidine-3-carboxamide]
O=C(Nc1ccc(O)c(C(F)(F)F)c1)[C@H]1C[C@@H](C(F)(F)F)CN(C(=O)c2c(F)cccc2F)[C@H]1c1ccc(NC2CCCC2)cc1 [INF068, (2R,3S,5R)-2-(4-(cyclopentylamino)phenyl)-1-(2,6-difluorobenzoyl)-N-(4-hydroxy-3-(trifluoromethyl)phenyl)-5-(trifluoromethyl)piperidine-3-carboxamide]
Cc1ccc(NC(=O)[C@H]2C[C@@H](C(F)(F)F)CN(C(=O)c3c(F)cccc3F)[C@H]2c2ccc(NC3CCCC3)cc2)cc1C(F)(F)F [INF052, (2R,3S,5R)-2-(4-(cyclopentylamino)phenyl)-1-(2,6-difluorobenzoyl)-N-(4-methyl-3-(trifluoromethyl)phenyl)-5-(trifluoromethyl)piperidine-3-carboxamide]
Cc1ccc(NC(=O)[C@H]2Cc3ccccc3N(C(=O)c3c(C)cccc3F)[C@H]2c2ccc(NC3CCCC3)cc2)cc1C(F)(F)F [INF004, (2R,3S)-2-(4-(cyclopentylamino)phenyl)-1-(2-fluoro-6-methylbenzoyl)-N-(4-methyl-3-(trifluoromethyl)phenyl)-1,2,3,4-tetrahydroquinoline-3-carboxamide]
Cc1cccc(F)c1C(=O)N1c2ccccc2C[C@H](C(=O)Nc2ccc(CO)c(C(F)(F)F)c2)[C@@H]1c1ccc(NC2CCCC2)cc1 [INF015, (2R,3S)-2-(4-(cyclopentylamino)phenyl)-1-(2-fluoro-6-methylbenzoyl)-N-(4-(hydroxymethyl)-3-(trifluoromethyl)phenyl)-1,2,3,4-tetrahydroquinoline-3-carboxamide]
Cc1ccc2c(c1)C[C@H](C(=O)Nc1ccc(C)c(C(F)(F)F)c1)[C@H](c1ccc(NC3CCCC3)cc1)N2C(=O)c1c(C)cccc1F [INF023, (2R,3S)-2-(4-(cyclopentylamino)phenyl)-1-(2-fluoro-6-methylbenzoyl)-6-methyl-N-(4-methyl-3-(trifluoromethyl)phenyl)-1,2,3,4-tetrahydroquinoline-3-carboxamide]
Cc1ccc(NC(=O)[C@H]2C[C@@H](C(F)(F)F)CN(C(=O)c3c(F)cccc3F)[C@H]2c2ccc(NC3CCCC3)cc2)cc1Cl [INF071, (2R,3S,5R)—N-(3-chloro-4-methylphenyl)-2-(4-(cyclopentylamino)phenyl)-1-(2,6-difluorobenzoyl)-5-(trifluoromethyl)piperidine-3-carboxamide]
COc1ccc2c(c1)C[C@H](C(=O)Nc1ccc(C)c(C(F)(F)F)c1)[C@H](c1ccc(NC3CCCC3)cc1)N2C(=O)c1c(C)cccc1F [INF024, (2R,3S)-2-(4-(cyclopentylamino)phenyl)-1-(2-fluoro-6-methylbenzoyl)-6-methoxy-N-(4-methyl-3-(trifluoromethyl)phenyl)-1,2,3,4-tetrahydroquinoline-3-carboxamide]
Cc1ccc(NC(=O)[C@H]2Cc3cc(F)ccc3N(C(=O)c3c(C)cccc3F)[C@H]2c2ccc(NC3CCCC3)cc2)cc1C(F)(F)F [INF022, (2R,3S)-2-(4-(cyclopentylamino)phenyl)-6-fluoro-1-(2-fluoro-6-methylbenzoyl)-N-(4-methyl-3-(trifluoromethyl)phenyl)-1,2,3,4-tetrahydroquinoline-3-carboxamide]
Cc1cccc(F)c1C(=O)N1c2ccc(F)cc2C[C@H](C(=O)Nc2ccc(CO)c(C(F)(F)F)c2)[C@@H]1c1ccc(NC2CCCC2)cc1 [INF039, (2R,3S)-2-(4-(cyclopentylamino)phenyl)-6-fluoro-1-(2-fluoro-6-methylbenzoyl)-N-(4-(hydroxymethyl)-3-(trifluoromethyl)phenyl)-1,2,3,4-tetrahydroquinoline-3-carboxamide]
Cc1cccc(F)c1C(=O)N1c2ccccc2C[C@H](C(=O)Nc2ccc(O)c(C(F)(F)F)c2)[C@@H]1c1ccc(NC2CCCC2)cc1 [INF033, (2R,3S)-2-(4-(cyclopentylamino)phenyl)-1-(2-fluoro-6-methylbenzoyl)-N-(4-hydroxy-3-(trifluoromethyl)phenyl)-1,2,3,4-tetrahydroquinoline-3-carboxamide]
Cc1cccc(F)c1C(=O)N1c2cccc(F)c2C[C@H](C(=O)Nc2ccc(CO)c(C(F)(F)F)c2)[C@@H]1c1ccc(NC2CCCC2)cc1 [INF045, (2R,3S)-2-(4-(cyclopentylamino)phenyl)-5-fluoro-1-(2-fluoro-6-methylbenzoyl)-N-(4-(hydroxymethyl)-3-(trifluoromethyl)phenyl)-1,2,3,4-tetrahydroquinoline-3-carboxamide]
